The source of these data is patent US5426104A, “Tricyclic carbapenem compounds, methods of preparation and methods of use” (Glaxo SpA, priority 1991, dated 1995).

Data set [1] can be described thus: intravenous administration to the mouse, adverse effects. As to conditions: 500 mg/kg intravenously. Type of data set: in vivo. An excerpt:
(§1) The compounds of the invention are essentially non-toxic at therapeutically useful doses.

Data set [2] is described as follows: intravenous administration to the rat, adverse effects. Type of data set: in vivo. To be noted: 500 mg/kg intravenously.
Description: as §1

A further data set relates to E coli 1852E. To be noted: 18 h.
For another data set, the system named is S aureus 663E. The data set is described as follows: standard microtiter broth serial dilution test, S aureus 663E. As to conditions: 18 h.
Another data set deals with E cloacae 3647. The data set is described as follows: standard microtiter broth serial dilution test, E cloacae 3647. As to conditions: 18 h.
In the next data set the test system is S faecalis 850E. The data set is described as follows: standard microtiter broth serial dilution test, S faecalis 850E. As to conditions: 18 h.
For a further data set, the system named is B fragilis 2017E. The data set is described as follows: standard microtiter broth serial dilution test, B fragilis 2017E. As to conditions: 18 h.
The test system of the next data set is P aeruginosa 1911E. In words: standard microtiter broth serial dilution test, P aeruginosa 1911E. As to conditions: 18 h.

In brackets after ≈: the same amount, converted by molar mass.

In general, MIC refers to the smallest concentration in the dilution series that meets the test's criterion for growth inhibition. A higher MIC goes with a need for much substance.

Description for B fragilis 2017E: (§2) For example the antibacterial activity of the compounds of the invention was determined using a standard microtiter broth serial dilution test. In this test the broth was incubated with approximately 10^5 colony forming units of the test organism and incubated at 35° for 18 hours in the presence of test compound.
Description for E cloacae 3647: as §2
Description for E coli 1852E: as §2
Description for P aeruginosa 1911E: as §2
Description for S aureus 663E: as §2
Description for S faecalis 850E: as §2

`C[C@@H](O)[C@H]1C(=O)N2C(C(=O)O)=C3[C@H](CCC[C@@H]3N(C)C=N)[C@H]12` [Example 1, (4S,8S,9R,10S,12R)-4-(N-methylformamidino)-10-(1-hydroxyethyl)-11-oxo-1-azatricyclo[7.2.0.0^3.^8]undec-2-ene-2-carboxylic acid]: the adverse effects result in data set [1] and in data set [2] was “no adverse effects were observed” each time. For the same compound, the MIC against E coli 1852E came out at 0.5 µg/mL (≈ 1.63 µM); against S aureus 663E it was 0.1 µg/mL (≈ 0.325 µM); against E cloacae 3647 it was 1 µg/mL (≈ 3.25 µM); in the data set on S faecalis 850E, 1 µg/mL (≈ 3.25 µM); against B fragilis 2017E it was 0.2 µg/mL (≈ 0.651 µM); with P aeruginosa 1911E, 8 µg/mL (≈ 26 µM).
Turning to `CN=CN[C@H]1CCC[C@H]2C1=C(C(=O)O)N1C(=O)[C@H]([C@@H](C)O)[C@@H]21` [Example 2, (4 S,8S,9R,10S,12R)-4-[(3'-methyl)formamidino)-10-(1-hydroxyethyl)-11-oxo-1-azatricyclo[7.2.0.0^3.^8]undec-2-ene-2-carboxylic acid], the MIC in the data set with E coli 1852E worked out at 2 µg/mL (≈ 6.51 µM); against S aureus 663E, 0.1 µg/mL (≈ 0.325 µM); against E cloacae 3647 it was 4 µg/mL (≈ 13 µM); in the data set with S faecalis 850E, 16 µg/mL (≈ 52.1 µM); against B fragilis 2017E, 0.5 µg/mL (≈ 1.63 µM); in the data set on P aeruginosa 1911E, 16 µg/mL (≈ 52.1 µM).
